Data taken from patent US9399663B2, “Competitive inhibitor of GP120” (priority 2014, dated 2016).
Where “and” joins values, the source holds several entries; their conditions need not be identical. Identical values can stand only once. Entries after “also recorded” stand apart in the source; their conditions may differ. Like-named read-outs stand apart in the source and are kept apart here. Residues, ends and D or L forms follow the SMILES beside them.

Experiments:
[1] = molecular target: T1, recombinant TUBB3 (Homo sapiens, UniProt Q13509); assay: SPR (BIACORE T200) binding to immobilized TUBB3; details: for SPR response (2-1) RU, Fc2: Tubulin β-3 1092 RU: 60 sec injection; for Kd: Ligand: TUBB3
T1 construct: purchased MyBioSource, San Diego, Calif
T1 sequence (Q13509 whole entry): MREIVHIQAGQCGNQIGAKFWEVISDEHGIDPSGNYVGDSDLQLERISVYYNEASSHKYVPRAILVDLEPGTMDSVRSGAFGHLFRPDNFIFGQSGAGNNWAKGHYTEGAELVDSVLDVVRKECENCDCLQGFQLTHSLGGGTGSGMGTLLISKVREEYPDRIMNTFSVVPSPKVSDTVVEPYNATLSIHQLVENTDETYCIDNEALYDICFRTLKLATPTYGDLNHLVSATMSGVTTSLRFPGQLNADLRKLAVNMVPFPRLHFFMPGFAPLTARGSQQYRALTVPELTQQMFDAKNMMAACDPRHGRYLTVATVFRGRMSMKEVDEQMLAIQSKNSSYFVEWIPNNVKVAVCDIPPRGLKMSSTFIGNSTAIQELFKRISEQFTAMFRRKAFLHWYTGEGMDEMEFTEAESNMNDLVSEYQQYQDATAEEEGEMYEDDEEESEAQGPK
Experimental: (§1) Surface plasmon resonance (SPR). BIACORE® T200™ was used to determine the kinetic parameters for the binding of recombinant TUBB3, tubulin dimer, and assembled microtubules (ligands) to the various isoforms of gp120 or related peptides (analytes). Recombinant TUBB3, tubulin dimer, and assembled MTs were covalently attached to different flow cells of a carboxymethyldextran (CM5) sensor chip by amine coupling. The chip surface was activated for 720 sec at 10 μL/min with of 1:1 mixture of 0.1 M N-Hydroxysuccinimide (NHS) and 0.5 M 1-Ethyl-3-(-3-dimethylaminopropyl)-carbodiimide hydrochloride (EDC). […] After ligand capture, the surfaces were deactivated by injecting 1 M ethanolamine for 720 sec at 10 μL/min. HBS-P (10 mM HEPES, pH7.4, 150 mM NaCl, 0.05% P-20) with 2 mM MgCl2 used as the running buffer. Flow cell 1 on each chip was left empty and used for reference surface. […] Kinetic studies were performed by injecting different concentrations of the analytes in triplicate. The chip surface was regenerated by with 10 mM glycine pH 1.5 injected for 30 sec at a flow rate of 100 μL/min. Each sample was injected for 60 sec (contact time) followed by a dissociation time of 300 sec at a flow rate of 100 μL/min. Data was analyzed with BIACORE® T200™ Evaluation Software (version 1) to determine the equilibrium dissociation constant (KD) from a 1:1 binding model. Binding studies with peptides Helix A and Helix B were done in the same way as described above. Kinetic studies were performed by injecting different concentrations (20 μM, 10 μM, 5 μM, 2.5 μM, 1.25 μM and 0.625 μM) of Helix A and Helix B. Competition experiments with Helix A and Helix B were performed by mixing 100 nM gp120 isoforms with 10 μM of each peptide and injecting over the sensorchip surface.
(§2) Recombinant TUBB3, tubulin dimer, and assembled MTs from bovine brains were immobilized on a BIACORE® CM5 chip by amine coupling. Different concentrations of gp120s (from 3.13 to 100 nM) were injected over the surface in triplicates in each experiment. The kinetics of interaction was analyzed using a BIACORE® T200™ instrument. BiaEvaluation software was used to calculate binding affinities based on 1:1 binding model.

[2] = molecular target: gp120IIIB (Human immunodeficiency virus type 1 group M subtype B, UniProt P04578); details: dot blot, 2 μg peptide spotted, 5 μg gp120IIIB
Experimental: Dot blot analysis: CTTs or Helix-A and -B peptides (2 μg each) were spotted on a nitrocellulose membrane and allowed to dry. The membrane was then incubated in blocking buffer (5% BSA in TBST [[…] NaCl, 20 mM Tris-base, pH 7.5, 0.05% TWEEN® 20]) for 2 hours followed by incubation with a solution composed of 5 μg recombinant gp120 (for binding to CTTs) or 5 μg recombinant TUBB3 (for Helix-A and -B) in 20 mL of TBST for 2 hours. The membranes were washed and then incubated with a mouse anti-gp120 antibody (1:1000; Immunodiagnostics, Inc.) or mouse anti-TUBB3 antibody (1:5000; Covance, N.J.) in TBST for 2 hours. Membranes were washed and incubated in goat anti-mouse HP-conjugated secondary antibody (1:20,000; Jackson ImmunoResearch Laboratories, Inc., PA). Visualization of the bands was then accomplished by the addition of PIERCE® SUPERSIGNAL™ West Pico-Stable Peroxidase Solution and Luminol/Enhancer Solution (Pierce Biotechnology, Inc., Rockford, Ill.).
Several CTTs (see Table 1) synthesized by […]® were used. Peptides (2 μg each) were spotted on a nitrocellulose membrane and incubated with a solution composed of 5 μg of gp120IIIB (Immunodiagnostics) in 20 mL of TBS-TWEEN® 2 hours at RT, followed by incubation with a specific primary antibody (Immunodiagnostics, +4° C., ON). Following incubation with a corresponding HRP-conjugated secondary antibody 1 hour at RT, the immunocomplexes were visualized with chemiluminescence.

[3] = system: gp120 binding to microtubules; assay: SPR competition: gp120 premixed with Helix peptide injected over microtubules; parameters: species or system Porcine; details: 60 sec injection
From the text: (§3) BIACORE® T200™ was used to determine the kinetic parameters for the binding of recombinant TUBB3, tubulin dimer, and assembled MTs to gp120s in the absence and presence of Helix-A peptide. […] Representative data are from one of three independent experiments.
(§4) Surface plasmon resonance (SPR). BIACORE® T200™ was used to determine the kinetic parameters for the binding of recombinant TUBB3, tubulin dimer, and assembled microtubules (ligands) to the various isoforms of gp120 or related peptides (analytes). Recombinant TUBB3, tubulin dimer, and assembled MTs were covalently attached to different flow cells of a carboxymethyldextran (CM5) sensor chip by amine coupling. The chip surface was activated for 720 sec at 10 μL/min with of 1:1 mixture of 0.1 M N-Hydroxysuccinimide (NHS) and 0.5 M 1-Ethyl-3-(-3-dimethylaminopropyl)-carbodiimide hydrochloride (EDC). […] After ligand capture, the surfaces were deactivated by injecting 1 M ethanolamine for 720 sec at 10 μL/min. HBS-P (10 mM HEPES, pH7.4, 150 mM NaCl, 0.05% P-20) with 2 mM MgCl2 used as the running buffer. Flow cell 1 on each chip was left empty and used for reference surface. TUBB3 (1040 RU), tubulin dimer (2086 RU), and assembled MTs (990 RU) were captured on the remaining 3 flow cells. […] Data was analyzed with BIACORE® T200™ Evaluation Software (version 1) to determine the equilibrium dissociation constant (KD) from a 1:1 binding model. […]

[4] = system: assembled MTs; assay: SPR (BIACORE T200) binding to immobilized assembled microtubules; parameters: species or system Porcine; details: 1 uM peptide alone; 60 sec injection
Experimental: Surface plasmon resonance (SPR). BIACORE® T200™ was used to determine the kinetic parameters for the binding of recombinant TUBB3, tubulin dimer, and assembled microtubules (ligands) to the various isoforms of gp120 or related peptides (analytes). Recombinant TUBB3, tubulin dimer, and assembled MTs were covalently attached to different flow cells of a carboxymethyldextran (CM5) sensor chip by amine coupling. The chip surface was activated for 720 sec at 10 μL/min with of 1:1 mixture of 0.1 M N-Hydroxysuccinimide (NHS) and 0.5 M 1-Ethyl-3-(-3-dimethylaminopropyl)-carbodiimide hydrochloride (EDC). […] After ligand capture, the surfaces were deactivated by injecting 1 M ethanolamine for 720 sec at 10 μL/min. HBS-P (10 mM HEPES, pH7.4, 150 mM NaCl, 0.05% P-20) with 2 mM MgCl2 used as the running buffer. Flow cell 1 on each chip was left empty and used for reference surface. TUBB3 (1040 RU), tubulin dimer (2086 RU), and assembled MTs (990 RU) were captured on the remaining 3 flow cells. Kinetic studies were performed by injecting different concentrations of the analytes in triplicate. The chip surface was regenerated by with 10 mM glycine pH 1.5 injected for 30 sec at a flow rate of 100 μL/min. Each sample was injected for 60 sec (contact time) followed by a dissociation time of 300 sec at a flow rate of 100 μL/min. Data was analyzed with BIACORE® T200™ Evaluation Software (version 1) to determine the equilibrium dissociation constant (KD) from a 1:1 binding model. Binding studies with peptides Helix A and Helix B were done in the same way as described above. Kinetic studies were performed by injecting different concentrations (20 μM, 10 μM, 5 μM, 2.5 μM, 1.25 μM and 0.625 μM) of Helix A and Helix B. Competition experiments with Helix A and Helix B were performed by mixing 100 nM gp120 isoforms with 10 μM of each peptide and injecting over the sensorchip surface.
Recombinant TUBB3, tubulin dimer, and assembled MTs from bovine brains were immobilized on a BIACORE® CM5 chip by amine coupling. […] The kinetics of interaction was analyzed using a BIACORE® T200™ instrument. […]

[5] = molecular target: T2, gp120 binding to Tubulin β-3 (Homo sapiens, UniProt Q13509); assay: SPR competition: gp120 premixed with Helix peptide injected over TUBB3; details: 60 sec injection
T2 construct: purchased MyBioSource (TUBB3); Immunodiagnostics Inc, Woburn, Mass; (gp120s)
T2 sequence (Q13509 whole entry): as above
From the text: as §3, §4

[6] = system: gp120 binding to tubulin dimer; assay: SPR competition: gp120 premixed with Helix peptide injected over tubulin dimer; parameters: species or system Porcine; details: 60 sec injection
Experimental: BIACORE® T200™ was used to determine the kinetic parameters for the binding of recombinant TUBB3, tubulin dimer, and assembled MTs to gp120s in the absence and presence of Helix-A peptide. Gp120s (100 nM) were injected over the surface alone or as a premix with Helix-A peptides (10 μM). Representative data are from one of three independent experiments.
as §4, with “surface.” for “surface. TUBB3 (1040 RU), tubulin dimer (2086 RU), and assembled MTs (990 RU) were captured on the remaining 3 flow cells.”

[7] = system: tubulin dimer; assay: SPR (BIACORE T200) binding to immobilized tubulin dimer; parameters: species or system Porcine; details: 1 uM peptide alone; 60 sec injection
Experimental: as §1
as §2, with “BiaEvaluation software was used to calculate binding affinities based on 1:1 binding model.” left out

[8] = system: rat cortical neurons; assay: Penetration of neuronal membranes (confocal microscopy, transmission electron microscopy); type: cell-based; details: 5 μM, 24 hours, FITC-labeled; listed as Helix-A peptide
Experimental: FTIR spectra of Helix-A nano. The gray line highlights the Amide region typical of peptide components. c. […] Representative images obtained by transmission electron microscopy showing unmodified MSN and Helix-A nano in intact and open lysosomes, respectively. Bar=500 nm.
Primary cortical neurons: Cortical neuronal cultures were prepared from the cortex of embryonic (E17-18) Sprague Dawley rats (Charles River, Mass.). Cells were seeded onto poly-L-lysine pre-coated plates in Neurobasal Medium containing 2% B27 supplement, […] glutamate, 0.5 mM L-glutamine, and 1% antibiotic-antimycotic solution (INVITROGEN®, Carlsbad, Calif.). Cultures were grown at 37° C. in 5% CO2/95% air for 7 days. Cultures contained ˜5% of non-neuronal cells. […]
Immunocytochemistry of primary neurons: Primary cortical neurons were maintained on glass coverslips for 7 days and fixed in 4% paraformaldehyde/phosphate buffer with 4% sucrose for 20 minutes at room temperature (RT). […] Coverslips were washed with PBS-T and correspondent fluorescence-conjugated secondary antibody (1:2000; INVITROGEN®, CA) were applied for 1 hour at RT. […] Image scale was calibrated and length of MAP-2 positive processes was measured in 10 neurons per field using ImageJ.

[9] = 100 nM GP120IIIB + 1 uM peptide
[10] = 100 nM GP120IIIB + 10 uM peptide

gp120MN: HIV envelope protein gp120, strain MN, purchased from Immunodiagnostics
SPR response (2-1) RU, Fc2: Tubulin β-3 1092 RU ([1]; 100 nM gp120 alone): 9 RU and 8.8 RU
Kd ([1]; mean of two independent experiments, read-out: Mean KD): 740 nM
Kd ([1]; single experiment, gp120 3.13 to 100 nM, 1:1 binding model, read-out: KD): 579 nM and 901 nM

EDDEEESEA [SEQ ID NO: 13]
Binding to gp120 ([2]; listed as tubulin β-3 (TUBB3)): potential binding partners

EGEGEEEGE [SEQ ID NO: 5]
Binding to gp120 [2]: YES
Binding to gp120 ([2]; listed as tubulin-α1A/1B Δ2): potential binding partners

RAKWNNTLKQIASK (listed as Homo sapiens) [Helix B]
SPR response (2-1) RU, Fc2: Tubulin β-3 1092 RU ([1]; 10 uM peptide alone): 1.1 RU and 1.2 RU
SPR response (4-1) RU, Fc4: Microtubules 970 RU [3, 9]: 16.5 RU
SPR response (4-1) RU, Fc4: Microtubules 970 RU [3, 10]: 19 RU and 20 RU
SPR response (4-1) RU, Fc4: Microtubules 970 RU [4]: N/B
SPR response (2-1) RU, Fc2: Tubulin β-3 1092 RU [5, 9]: 33 RU
SPR response (2-1) RU, Fc2: Tubulin β-3 1092 RU [5, 10]: 34 RU and 32 RU
SPR response (3-1) RU, Fc3: Tubulin Dimer 1900 RU [6, 9]: 18.5 RU
SPR response (3-1) RU, Fc3: Tubulin Dimer 1900 RU [6, 10]: 20 RU and 18 RU
SPR response (3-1) RU, Fc3: Tubulin Dimer 1900 RU [7]: 0.4 RU and 0.5 RU

CC[C@H](C)[C@H](NC(=O)[C@H](CC(=O)O)NC(=O)[C@H](CCC(=O)O)NC(=O)[C@H](Cc1c[nH]cn1)NC(=O)[C@H](CCSC)NC(=O)[C@H](CCC(N)=O)NC(=O)[C@H](CCC(=O)O)NC(=O)[C@@H](NC(=O)[C@H](CCSC)NC(=O)[C@H](CC(=O)O)NC(=O)[C@@H](N)CC(N)=O)C(C)C)C(=O)N[C@H](C(=O)N[C@@H](CO)C(=O)N[C@@H](CC(C)C)C(=O)N[C@@H](Cc1c[nH]c2ccccc12)C(=O)N[C@@H](CC(=O)O)C(=O)N[C@@H](CCC(N)=O)C(=O)N[C@@H](CO)C(=O)N[C@@H](CC(C)C)C(=O)N[C@@H](CCCCN)C(=O)O)[C@@H](C)CC [Helix A] (H-NDMVEQMHEDIISLWDQSLK-OH; N-terminus and C-terminus assumed)
penetration of neuronal cell membrane [8]: could not penetrate; also recorded: not cell-membrane-penetrable
